The values that follow are results of earlier work, collected in patent publication US4461765A (Shionogi & Co., Ltd., priority 1979, dated 1984).

≈ marks a conversion by molar mass, not a printed value.

For this series the following is noted: co-trimoxazol SMX:TMP 5:1; oral or intravenous administration.

As to `COc1cc(Cc2cnc(N)nc2N)cc(OC)c1OC` [TMP, trimethoprim], the “minimum inhibition concentration in the blood level” value was 0.6 µg/mL (≈ 2.07 µM).
